Laboratory results taken from patent US11965034B2, “Antifibrotic activity of CD47 blockade in the liver” (The Board of Trustees of the Leland Stanford Junior …, priority 2017, dated 2024).

Experiments:
[1] = system: c-Jun induced mice (bone marrow and skin fibrosis); assay: Systemic c-Jun induced bone marrow and skin fibrosis in vivo; parameters: species or system mouse; conditions: systemic c-Jun induction, drug i.p.
Source text: Blockade of the VEGF and PI3K pathways reverse marrow and skin fibrosis in vivo. Encouraged by these findings, we sought to evaluate the efficacy of blocking the PI3K-AKT pathway in c-Jun mediated fibrosis in vivo. Wortmannin, a potent PI3K inhibitor, was systemically administered to mice for 14 days that were induced to express c-Jun two days prior to drug. […] Any effects on gastroesophageal or bladder were not assessed as the fibrosis in these organs takes longer to develop. Both Rosa26-rtTA control mice were treated with dox and c-Jun-inducible mice were treated with PBS. No fibrosis developed in either control condition in lung or other organs over the same time span. Thus, the PI3K and VEGFR pathways are critical mediators of c-Jun-induced fibrosis in mice and may be also involved in the development of human fibrosing conditions.
Tissue processing. Animals were sacrificed at times indicated based on an APLAC-approved protocol that includes assessment of morbidity by >10% loss of weight, scruffy appearance and lethargy. […] Images were analyzed in Adobe Photoshop (Adobe Systems, San Jose, CA). […] Flow cytometry was performed on a FACS Aria cytometer (BD Biosciences, San Jose, CA), at least 10,000 events were acquired, and data were analyzed using FlowJo software. […]

[2] = system: c-Jun-induced migration of bone marrow-derived stromal cells; assay: Transwell migration assay of c-Jun-induced bone marrow-derived stromal cells (in vitro inhibitory screen); assay type: cell-based, mouse; conditions: bone marrow-derived stromal cells from c-Jun-inducible mice, dox induced
Source text: Functional evaluation of signaling pathways mediating the fibrogenic response. We next wished to assess the functional relevance of the signaling pathway rewiring induced by transcriptional activation of c-Jun. To enable systematic pharmacological interrogation we sought to develop a c-Jun-dependent in vitro assay. We assessed two cell biological parameters in cultured bone marrow-derived stromal cells from c-Jun-inducible mice. First, we assessed cell growth and observed a shortening of the cell doubling time from about […] in control to about 2 days in c-Jun-induced fibroblasts (FIG. 6A). Second, we measured cell migration of bone marrow-derived stromal cells in a transwell migration assay as a functional readout of the c-Jun induction and observed a 100-fold increase in migration at 2 hours and a 1000-fold increase at 24 hours in c-Jun induced cells versus uninduced cells (FIG. 6B).
Given its much greater dynamic range, we then tested a series of small molecule inhibitors in the transwell migration assay. […]
Transwell migration and proliferation assays. For transwell migration assays Costar transwell chambers were used according to the manufacturer's directions and transmigrated adherent cells were fixed and stained and counted by microscopy after periods of 2 hrs and 24 hrs. […]

## CCN(CC)CCCCNc1ncc2cc(-c3cc(OC)cc(OC)c3)c(NC(=O)NC(C)(C)C)nc2n1 [PD173074]
[1]
  bone marrow fibrosis: significantly decreased
  skin fibrosis (dermal skin thickening and collagen deposition): but not skin fibrosis
[2]
  c-Jun-induced migration: abolish
